{"source": "paper PMC6839174", "about": "“Targeting the Formyl Peptide Receptor type 1 to prevent the adhesion of ovarian cancer cells onto mesothelium and subsequent invasion” (Journal of Experimental & Clinical Cancer Research : CR, 2019)", "key": {"[1]": {"conditions": "ref [36]; cited from earlier work", "excerpt": "On the other hand, despite a variety of natural and synthetic compounds that interfere with FPR1-dependent pathways antagonizing FPR1functions have been described, the majority had off-target effects, discouraging their clinical development."}, "[2]": {"parameters": "method as in PMID 28465589", "conditions": "mice, ref [36], cited from earlier work"}, "primary EOC cells [3]": {"tested_on": "primary EOC cells", "test": "GFP-EOC (primary) cell adhesion onto mesothelium (HPMC monolayer)", "type": "cell-based, human", "conditions": "three independent experiments in triplicate", "procedure": "HPMCs (1 × 10^5 cells/well) suspended in growth medium, were seeded in 24-well plates and allowed to adhere for about 20 h until they form a confluent monolayer, prior to seeding GFP-tagged EOC cells suspended in growth medium plus diluents or 10 nM RI-3. At the indicated times, plates were accurately washed with PBS and cell-associated fluorescence was assessed by a fluorescence plate reader a fluorescence plate reader (Victor 3, Perkin Elmer), using 485 nm excitation and 535 nm emission filters. The experiments were performed three times in triplicate."}, "A2780 cells": {"tested_on": "A2780 cells", "test": "HPMC invasion by A2780 cells monitored in real time", "type": "cell-based, Human", "conditions": "10 nM RI-3; xCELLigence; quadruplicate representative of 2 replicates", "procedure": "(§1) HPMCs (5 × 10^3 cells/well) suspended in growth medium, were seeded in E-16-well plates and allow to adhere for 18–20 h until they form a confluent monolayer, prior to seeding EOC cells (2 × 10^4 cells/well) in growth medium plus/minus 10 nM RI-3. When HPMCs are challenged with invading cells, there is a drop in electrical resistance within 2–4 h which is monitored in real-time as the Cell Index changes due to the rupture of mesothelium. The experiments were performed three times in quadruplicate.\nSupplementary file 13046_2019_1465_MOESM1_ESM.zip: Additional file 1: Figure S1. Adhesion and mesothelial invasion properties of uPAR and FPR1 lacking EOC cells. a. […] analysis of human ovarian carcinoma A2780 cells with (CD87)-APC-conjugated anti-uPAR or PE-conjugated FPR1 antibodies. b. Cell adhesion of A2780 cells on 1% BSA (CTRL), Vn-, Fn-Lm or Coll-coated plates, in the presence or the absence of 10 nM RI-3. The number of adherent cells was expressed as a percentage of CTRL. Data are the means ± SD of three independent experiment. c. Mesothelium invasion by A2780 cells. […] Then, A2780 cells suspended in growth medium plus/minus 10 nM RI-3 were seeded onto the mesothelial cell monolayer and invasion of mesothelium by A2780 cells was monitored in real-time as changes in Cell Index due to breaking of the monolayer integrity. […]"}, "[4]": {"conditions": "cited from earlier work", "excerpt": "(§2) Human FPR1, originally identified in neutrophils, monocytes and macrophages, has been shown in recent years, to be expressed also in many non-myelocytic cells. Aberrant expression of FPR1 was detected in tumors of different origin and reported as a negative prognostic factor [29–31]. While the role of uPAR in favoring intra-abdominal dissemination of ovarian cancer cells is largely documented, no data regarding expression and possible role of FPR1 on the surface of ovarian cancer cells are currently available. In the past years, we generated synthetic peptides containing the s ..."}, "[5]": {"tested_on": "sarcoma and melanoma cells", "conditions": "dose dependent, ref [36], [37]; cited from earlier work", "excerpt": "as §2"}, "FPR1": {"tested_on": "FPR1", "conditions": "ref [36], cited from earlier work", "excerpt": "as §2"}, "[6]": {"tested_on": "p38 MAPK and PI3K/AKT signaling cascades", "conditions": "ref [36]; cited from earlier work", "excerpt": "as §2"}, "primary EOC cells [7]": {"tested_on": "primary EOC cells", "test": "Adhesion of primary EOC cells onto matrix proteins monitored in real time (xCELLigence)", "type": "cell-based, human", "procedure": "This assay was performed using E-16-well plates and the xCELLigence Real Time Cell Analysis technology. Bottom wells were coated with serum-free medium, 5 μg mL Vn, 5 μg mL Fn, 5 μg mL Lm or 15 μg mL Coll diluted in serum-free medium prior to seeding cells (1 × 10^4 cells/well) suspended in serum-free medium. Cells that adhere to the bottom of plates cause impedance changes which are proportional to the number of cells. The impedance value of each well was automatically monitored in real-time for at least 2 h and expressed as a cell index value. The experiments were performed three times in quadruplicate.\nFig. 6 RI-3 prevents EOC cell adhesion and subsequent invasion of mesothelium. a Adhesion of primary EOC cells on E-plates coated with 1% BSA (CTRL), 5 μg mL Vn, 5 μg mL Fn, 5 μg mL Lm or 15 μg mL Coll, with/without 10 nM RI-3, monitored in real time for 5 h by the xCELLigence system. Data represent mean ± SD from a quadruplicate experiment representative of 3 replicates. b-c Adhesion of EOC cells onto Vn in the absence or presence of 10 nM RI-3, monitored in real time for 3 h by the xCELLigence system. […] At the indicated times, cell associated fluorescence was assessed by a fluorescence plate reader. […] Cells invasion was monitored in real-time as changes in Cell Index due to breaking of the monolayer integrity (e). […]"}, "primary EOC cells [8]": {"tested_on": "primary EOC cells", "test": "HPMC invasion by primary EOC cells monitored in real time", "type": "cell-based, human", "conditions": "10 nM RI-3; xCELLigence, slopes 18–24 h; quadruplicate representative of 3 replicates", "procedure": "as §1"}}, "note": "Non-standard residues stand in square brackets, D forms with d. Aib = CC(C)(N)C(=O)O", "data": [{"substance": "Ac-[dY][dR][Aib][dR]-NH2 [RI-3, retro-inverso peptide, uPAR/FPR1 antagonist]", "values": [{"measurement": "cell proliferation", "setting": "[1]", "value": "does not affect cell proliferation"}, {"measurement": "body weight", "setting": "[2]; versus vehicle-treated animals", "value": "no change of body weight"}, {"measurement": "tolerability in vivo", "setting": "[2]", "value": "well tolerated in vivo"}, {"measurement": "visible side-effects", "setting": "[2]", "value": "no visible side-effects"}, {"measurement": "reduction of EOC cell adhesion onto mesothelium", "setting": "primary EOC cells [3]; 10 nM RI-3, after 5 min", "value": 72, "unit": "%"}, {"measurement": "reduction of EOC cell adhesion onto mesothelium", "setting": "primary EOC cells [3]; 10 nM RI-3, after 10 min", "value": 51, "unit": "%"}, {"measurement": "reduction of EOC cell adhesion onto mesothelium", "setting": "primary EOC cells [3]; 10 nM RI-3, after 20 min", "value": 47, "unit": "%"}, {"measurement": "reduction of EOC cell adhesion onto mesothelium", "setting": "primary EOC cells [3]; 10 nM RI-3, after 40 min", "value": 46, "unit": "%"}, {"measurement": "A2780 cell crossing of mesothelium", "setting": "A2780 cells", "value": "ineffective"}, {"measurement": "stability in human serum", "setting": "[4]", "value": "stable in human serum"}, {"measurement": "concentration range for overall 50% reduction of cell invasion", "setting": "[5]", "value": "nanomolar range"}, {"measurement": "concentration range for overall 50% reduction of cell migration", "setting": "[5]", "value": "picomolar"}, {"measurement": "competition for binding to FPR1", "setting": "FPR1; competes with fMLF and SRSRY", "value": "competes with fMLF and SRSRY for binding to FPR1"}, {"measurement": "SRSRY-induced FPR1 internalization", "setting": "FPR1", "value": "preventing SRSRY-induced FPR1 internalization"}, {"measurement": "p38 MAPK and PI3K/AKT signaling cascades", "setting": "[6]", "value": "preventing SRSRY-induced FPR1 internalization as well as p38 MAPK and PI3K/AKT signaling cascades"}, {"measurement": "reduction of primary EOC cell adhesion onto Vn", "setting": "primary EOC cells [7]; 10 nM RI-3, 5 μg mL Vn, real time, slopes 10–120 min, quadruplicate representative of 3 replicates", "value": 55, "unit": "%"}, {"measurement": "matrix selectivity of adhesion reduction, primary EOC cells", "setting": "primary EOC cells [7]; 10 nM RI-3, Vn vs Fn, Coll, Lm, real time 5 h", "value": "exclusively reduced cell adhesion onto Vn"}, {"measurement": "reduction of capability of EOC cells to cross the mesothelial cell monolayer", "setting": "primary EOC cells [8]", "value": "about 80%"}]}]}
